Where “and” joins values, the source holds several entries; their conditions need not be identical. Identical values can stand only once.
What was measured:
[1] = tested on: patient diagnosed as suffering from narcolepsy with cataplexy; assay: Single-patient examples: reboxetine 5 mg at 8 am and 5 mg at 1 pm for three weeks in narcolepsy with cataplexy; format: in vivo, human
Procedure: A person is diagnosed as suffering from narcolepsy with cataplexy. They are given reboxetine and instructed to take 5 mg of reboxetine at 8 am and 5 mg of reboxetine at 1 pm for three weeks. The patient is evaluated prior to treatment, and weekly to determine the MWT score, the number of cataplexy attacks, the PGI-C score, the HAM-D score, the ESS score, the NSAQ score, and the ability to concentrate on the NSAQ. After one week of treatment, the number of cataplexy attacks have decreased by 10-30%.
A person is diagnosed as suffering from narcolepsy with cataplexy. They are given reboxetine and instructed to take 5 mg of reboxetine at 8 am and 5 mg of reboxetine at 1 pm for three weeks. The patient is evaluated prior to treatment, and weekly to determine the MWT score, the number of cataplexy attacks, the PGI-C score, the HAM-D score, the ESS score, the NSAQ score, and the ability to concentrate on the NSAQ. After one week of treatment, the number of cataplexy attacks have decreased by 30-60%.
A person is diagnosed as suffering from narcolepsy with cataplexy. They are given reboxetine and instructed to take 5 mg of reboxetine at 8 am and 5 mg of reboxetine at 1 pm for three weeks. The patient is evaluated prior to treatment, and weekly to determine the MWT score, the number of cataplexy attacks, the PGI-C score, the HAM-D score, the ESS score, the NSAQ score, and the ability to concentrate on the NSAQ. After one week of treatment, the number of cataplexy attacks have decreased by 60-100%.
A person is diagnosed as suffering from narcolepsy with cataplexy. They are given reboxetine and instructed to take 5 mg of reboxetine at 8 am and 5 mg of reboxetine at 1 pm for three weeks. The patient is evaluated prior to treatment, and weekly to determine the MWT score, the number of cataplexy attacks, the PGI-C score, the HAM-D score, the ESS score, the NSAQ score, and the ability to concentrate on the NSAQ. After one week of treatment, the ESS score has decreased by 10-30%.
A person is diagnosed as suffering from narcolepsy with cataplexy. They are given reboxetine and instructed to take 5 mg of reboxetine at 8 am and 5 mg of reboxetine at 1 pm for three weeks. The patient is evaluated prior to treatment, and weekly to determine the MWT score, the number of cataplexy attacks, the PGI-C score, the HAM-D score, the ESS score, the NSAQ score, and the ability to concentrate on the NSAQ. After one week of treatment, the ESS score has decreased by 30-60%.
A person is diagnosed as suffering from narcolepsy with cataplexy. They are given reboxetine and instructed to take 5 mg of reboxetine at 8 am and 5 mg of reboxetine at 1 pm for three weeks. The patient is evaluated prior to treatment, and weekly to determine the MWT score, the number of cataplexy attacks, the PGI-C score, the HAM-D score, the ESS score, the NSAQ score, and the ability to concentrate on the NSAQ. After one week of treatment, the ESS score has decreased by 60-100%.
A person is diagnosed as suffering from narcolepsy with cataplexy. They are given reboxetine and instructed to take 5 mg of reboxetine at 8 am and 5 mg of reboxetine at 1 pm for three weeks. The patient is evaluated prior to treatment, and weekly to determine the MWT score, the number of cataplexy attacks, the PGI-C score, the HAM-D score, the ESS score, the NSAQ score, and the ability to concentrate on the NSAQ. After one week of treatment, the MWT score has decreased by 10-30%.
A person is diagnosed as suffering from narcolepsy with cataplexy. They are given reboxetine and instructed to take 5 mg of reboxetine at 8 am and 5 mg of reboxetine at 1 pm for three weeks. The patient is evaluated prior to treatment, and weekly to determine the MWT score, the number of cataplexy attacks, the PGI-C score, the HAM-D score, the ESS score, the NSAQ score, and the ability to concentrate on the NSAQ. After one week of treatment, the MWT score has decreased by 30-60%. […]

[2] = tested on: patients with a diagnosis of narcolepsy with cataplexy; assay: Phase 2, double-blind, randomized, placebo-controlled, crossover, multicenter trial of reboxetine in patients with narcolepsy; format: in vivo, human
Procedure: A Phase 2, double-blind, randomized, placebo-controlled, crossover, multicenter trial of reboxetine was carried out in patients with narcolepsy. A total of 21 patients with a diagnosis of narcolepsy with cataplexy were treated for 2 weeks with reboxetine or with placebo, followed by a crossover to the other treatment after a 1-week down-titration and washout period. Reboxetine was administered orally twice daily, with a total daily dose of 8 mg for Week 1 which was escalated to 10 mg for Week 2. Patients were randomized in a 1:1 ratio either to treatment with reboxetine followed by placebo (sequence 1), or to treatment with placebo followed by reboxetine (sequence 2). The average number of cataplexy attacks at baseline was 30. Key assessments were made daily using an electronic diary. The prespecified primary endpoint was the change in the weekly number of cataplexy attacks, averaged over the 2-week treatment period (overall treatment effect). Secondary endpoints included changes in the number of inadvertent naps, cognition, and Epworth Sleepiness Scale. Cognition was assessed using the Ability to Concentrate item of the Narcolepsy Symptom Assessment Questionnaire, a patient reported outcome measure. This item is rated on 5-point scale (1=very good to 5=very poor). All analyses were conducted on an intent-to-treat basis.

[3] = human patients; without controlled release coating; cited from earlier work

## CCOc1ccccc1OC(c1ccccc1)C1CNCCO1 (centres unmarked) [reboxetine]
[1]; after one week of treatment
  decrease in ESS score: 10-30% and 30-60% and 60-100%
  decrease in MWT score: 10-30% and 30-60% and 60-100%
  decrease in number of cataplexy attacks: 10-30% and 30-60% and 60-100%
[1]; after three weeks of treatment
  decrease in ESS score: 10-30% and 30-60% and 60-100%
  decrease in HAM-D score: 10-30% and 30-60% and 60-100%
  decrease in MWT score: 10-30% and 30-60% and 60-100%
  decrease in number of cataplexy attacks: 10-30% and 30-60% and 60-100%
[2]; Week 1, p=0.007 vs placebo
  patients with an ability to concentrate that was good to very good (Ability to Concentrate item of the NSAQ): 38.1%
[2]; Week 2
  mean reduction from baseline in cataplexy attacks: 48.7%
[2]; Week 2, baseline average 30 attacks, p=0.002 vs placebo
  mean reduction of cataplexy attacks per week: 14.6 cataplexy attacks per week
[2]; Week 2, p<0.001 vs placebo, FIG. 5
  mean reduction from baseline in the average weekly number of inadvertent naps: 31.8%
[2]; Week 2, p=0.003 vs placebo, FIG. 2
  proportion of patients achieving a 50% or greater reduction in the weekly number of cataplexy attacks: 76.2%
[2]; Week 2, p=0.018 vs placebo, FIG. 3
  proportion of patients achieving a 75% or greater reduction in the weekly number of cataplexy attacks: 42.9%
[2]; after 1-week treatment
  mean reduction from baseline in cataplexy attacks: 43.3%
[2]; after 1-week treatment, p<0.001 vs placebo
  mean reduction of cataplexy attacks: 13.0 cataplexy attacks
[2]; as compared to placebo, FIG. 9
  patients with reductions in hypnagogic hallucinations: greater proportion of patients with reductions
  patients with reductions in sleep paralysis episodes: greater proportion of patients with reductions
[2]; end of the 2-week treatment period, 0% at baseline
  patients with an ability to concentrate that was good to very good (Ability to Concentrate item of the NSAQ): 42.9%
[2]; human, in vivo
  discontinuations due to adverse events: no discontinuations due to adverse events
  most commonly reported adverse events: anxiety, constipation, and insomnia
  safety and tolerability: safe and well tolerated
  serious adverse events: no serious adverse events
[2]; p=0.003 vs placebo, FIG. 4
  reduction in the Epworth Sleepiness Scale (ESS) score from baseline: 6.0
[2]; p=0.007 vs placebo, FIG. 9
  patients reporting improved sleep quality: 45.0%
[2]; p=0.036 vs placebo, FIG. 6
  patients with 50% or greater reduction in inadvertent naps: 38.1%
[2]; p=0.044 vs placebo, FIG. 9
  patients reporting a reduction in the number of awakenings at night: 30.0%
[2]; placebo 40.0%
  overall percentage of patients experiencing adverse events: 42.9%
[2]; vs placebo, p<0.001, 8 mg/day Week 1, 10 mg/day Week 2, oral twice daily, FIG. 1
  reduction from baseline in the mean weekly number of cataplexy attacks, averaged for the 2-week treatment period (overall treatment effect), primary endpoint: highly statistically significant reduction
[3]
  time to reach a maximum plasma concentration: 2 to 4 h
